Experimental data as given in patent publication US10596212B2, “Mangifera indica as a Sirtuin 1 activating agent” (Vital Solutions Swiss AG, priority 2014, dated 2020).

Target: T1, human recombinant SIRT1 (Homo sapiens, UniProt Q96EB6)
T1 construct: purchased Cayman Chemical
T1 sequence (Q96EB6 1-747): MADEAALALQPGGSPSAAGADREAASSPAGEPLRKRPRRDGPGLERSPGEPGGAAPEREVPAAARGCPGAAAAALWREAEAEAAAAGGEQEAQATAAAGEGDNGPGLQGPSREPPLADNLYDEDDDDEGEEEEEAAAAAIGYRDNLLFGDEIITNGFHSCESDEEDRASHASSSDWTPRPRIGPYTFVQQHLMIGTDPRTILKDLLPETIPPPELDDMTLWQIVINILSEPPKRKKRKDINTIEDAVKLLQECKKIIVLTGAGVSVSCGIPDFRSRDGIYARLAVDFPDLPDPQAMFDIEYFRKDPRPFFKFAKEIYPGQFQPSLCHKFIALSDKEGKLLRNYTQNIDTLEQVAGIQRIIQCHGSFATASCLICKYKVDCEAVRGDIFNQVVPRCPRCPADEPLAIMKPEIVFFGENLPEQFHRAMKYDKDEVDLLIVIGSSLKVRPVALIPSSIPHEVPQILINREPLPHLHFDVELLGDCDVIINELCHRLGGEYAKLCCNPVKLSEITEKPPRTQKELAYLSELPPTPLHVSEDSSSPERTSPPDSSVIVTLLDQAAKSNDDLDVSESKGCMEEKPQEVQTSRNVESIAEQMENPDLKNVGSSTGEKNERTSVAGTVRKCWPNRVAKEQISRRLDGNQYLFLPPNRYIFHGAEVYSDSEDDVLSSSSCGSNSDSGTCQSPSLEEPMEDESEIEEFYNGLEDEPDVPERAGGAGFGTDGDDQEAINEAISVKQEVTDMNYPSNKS
Assay: SIRT1 Direct Fluorescent Screening Assay (Cayman Chemical), SIRT1 activation
Format: biochemical
Conditions: positive control, working concentration 1 mM, final assay concentration 32.5 μg/ml
Description: The assay was performed using SIRT1 Direct Fluorescent Screening Assay kit, (Cayman Chemical). In the assay resveratrol was used as a positive comparative control in the working concentration of 1 mM, or 228 μg/ml corresponding to a final assay concentration of 32.5 μg/ml.
Cayman's SIRT1 Direct Fluorescent Screening Assay Kit is fluorescence-based method for screening SIRT1 inhibitors or activators. In the first step, the substrate is incubated with human recombinant SIRT1 along with its co-substrate NAD+. Deacetylation sensitizes the substrate such that treatment with the developer in the second step releases a fluorescent product. The fluorophore is analyzed using an excitation wavelength of 350-360 nm and an emission wavelength of 450-465 nm.
The activation is calculated as % activation=(Sample−Initial Activity)/Initial Activity*100.

Oc1ccc(C=Cc2cc(O)cc(O)c2)cc1 [resveratrol]
activation of SIRT1: 37.5%
